# Test results from US11013723B1, “Solid forms of a thiazolidinone compound, compositions and methods of use thereof” (Celgene Corporation, priority 2018, dated 2021).
# Peptide text beside a SMILES is read from it.
# Assay: Slurry ripening comparative co-crystal screening (solid form outcome)
# Assay type: physicochemical
# Conditions: Compound 1 + coformer; EtOAc saturated with coformer; cycled 25° C./5° C., 10 days
# Procedure: In certain embodiments, for example, the method may comprise slurry ripening. […] In certain embodiments, the solvent is 1-butanol or toluene.
# In certain embodiments, for example, the saturated coformer solution may be prepared by 1) combining the quantity of coformer in a quantity (for example, about 2 mL) of solvent; 2) mixing the combined quantities at a predetermined temperature (for example 23° C.) for a predetermined period of time (for example at least about 16 hours or less than about 16 hours) to form a suspension; and 3) filtering the suspension (for example filtering the suspension through an 0.2 micron PTFE filter if the solvent is an organic solvent or an 0.45 micron filter if the solvent is an organic solvent mixed with water). In certain embodiments, for example, the solvent may be selected from the group consisting of ethyl alcohol, a solution of ethyl acetate and heptane (for example a solution having an ethyl acetate to heptane at ratio of 2:8 v/v), a solution of acetonitrile and water (for example a solution having a acetonitrile to water ratio of 1:9 v/v), and t-butyl methyl ether (MTBE), or a combination of two or more of the foregoing.
# A series of comparative crystallization experiments were conducted with 41 potential coformers and 7 solvents by two different methods.
row,Compound,"Slurry ripening result, EtOAc"
1,O=C(O)c1ccc2ccccc2c1O [1-Hydroxy-2-Naphthoic acid],PCH
2,O=C(O)[C@H](O)[C@@H](O)C(=O)O [(+)-L-Tartaric acid],F*
3,COC(=O)[C@H](Cc1ccccc1)NC(=O)[C@@H](N)CC(=O)O [Aspartame] (H-Asp-Phe-OMe),A + F
4,(−)-L-Malic acid,PCH

# Same assay, conditions: Compound 1 + coformer; EtOH saturated with coformer; cycled 25° C./5° C., 10 days
row,Compound,"Slurry ripening result, EtOH"
1,NC(=O)c1ccncc1 [Isonicotinamide],B*
2,NC(=O)c1cccnc1 [Nicotinamide],PCH
3,O=c1c(O)c(-c2ccc(O)c(O)c2)oc2cc(O)cc(O)c12 [Quercetin],PCH
4,(−)-L-Malic acid,PCH

# Same assay, conditions: Compound 1 + coformer; MTBE saturated with coformer; cycled 25° C./5° C., 10 days
row,Compound,"Slurry ripening result, MTBE"
1,O=C(O)c1ccc2ccccc2c1O [1-Hydroxy-2-Naphthoic acid],A*
2,CC1(C(=O)O)CCC(C(=O)O)C1(C)C (stereo not drawn) [(+)-Camphoric acid],PCH
3,O=C(O)[C@@H](O)c1ccccc1 [L-(+)-Mandelic acid],PCH
4,Oc1cccc(O)c1O [Pyrogallol],PCH
5,NC(N)=O [Urea],PCH

# Same assay, conditions: Compound 1 + coformer; Toluene saturated with coformer; cycled 25° C./5° C., 10 days
row,Compound,"Slurry ripening result, Toluene"
1,O=C(O)CC(=O)O [Malonic acid],F*
